In patent US12570642B2, “GLP-IR modulating compounds” (Gilead Sciences, Inc., priority 2021, dated 2026):
pEC50: −log10 of the molar value.

Target: GLP-1R (Homo sapiens, UniProt P43220)
Assay: GLP-1R Activation - cAMP Assay
Assay type: cell-based
Details: each compound run on one of the two cAMP assays (Assay 1 or Assay 2, not specified)
Procedure, shortened: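 cAMP rise read by HTRF after 30 min agonist exposure (10-point titration, 37 °C) in HBSS/20 mM Hepes/0.1% BSA, following 1 h pre-incubation. Cells: stable GLP-1R CHO line, 1,000/well, seeded overnight. Sigmoidal fit of response vs log concentration gives EC50.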

[1] = cAMP increase in CHO cells stably expressing GLP-1R

Chain of GLP-1R (P43220 24-463): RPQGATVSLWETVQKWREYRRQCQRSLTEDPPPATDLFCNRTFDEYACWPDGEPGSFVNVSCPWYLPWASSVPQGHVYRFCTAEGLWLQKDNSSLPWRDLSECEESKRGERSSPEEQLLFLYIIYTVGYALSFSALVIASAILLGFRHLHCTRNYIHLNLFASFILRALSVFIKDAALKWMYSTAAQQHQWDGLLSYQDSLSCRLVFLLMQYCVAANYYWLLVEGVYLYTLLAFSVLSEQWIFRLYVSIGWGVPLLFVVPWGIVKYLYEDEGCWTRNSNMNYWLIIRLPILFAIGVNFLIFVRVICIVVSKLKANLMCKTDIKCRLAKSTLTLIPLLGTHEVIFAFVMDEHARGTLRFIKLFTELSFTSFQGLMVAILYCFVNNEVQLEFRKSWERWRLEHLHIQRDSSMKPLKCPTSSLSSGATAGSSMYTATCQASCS

Row | Compound | pEC50 [1] | pEC50 ([…])
1 | CC1(C)COC[C@H]1n1c(Cc2cc(F)c(-c3ccc(F)c(OCc4ccc(Cl)cc4Cl)n3)cc2F)nc2ccc(C(=O)O)cc21 [Example 398, (S)-2-(4-(6-((2,4-dichlorobenzyl)oxy)-5-fluoropyridin-2-yl)-2,5-difluorobenzyl)-1-(4,4-dimethyltetrahydrofuran-3-yl)-1H-benzo[d]imidazole-6-carboxylic acid] | 9.66 | 
2 | CC1(C)COC[C@H]1n1c(Cc2cc(F)c(-c3cccc(OCc4ccc(C#N)cc4Cl)n3)cc2F)nc2ccc(C(=O)O)cc21 [Example 460, (S)-2-(4-(6-((2-chloro-4-cyanobenzyl)oxy)pyridin-2-yl)-2,5-difluorobenzyl)-1-(4,4-dimethyltetrahydrofuran-3-yl)-1H-benzo[d]imidazole-6-carboxylic acid] | 10.02 | 
3 | COc1cc(Cl)ncc1COc1nc(-c2cc(F)c(Cc3nc4ccc(C(=O)O)cc4n3[C@@H]3COCC3(C)C)cc2F)ccc1F [Example 342, (S)-2-(4-(6-((6-chloro-4-methoxypyridin-3-yl)methoxy)-5-fluoropyridin-2-yl)-2,5-difluorobenzyl)-1-(4,4-dimethyltetrahydrofuran-3-yl)-1H-benzo[d]imidazole-6-carboxylic acid] | 10.92 | 
4 | COC(C)(C)Cn1c(Cc2cc(F)c(-c3cccc(OCc4cnc(-n5ccnn5)cc4Cl)n3)cc2F)nc2ccc(C(=O)O)cc21 [Example 563, 2-(4-(6-((4-chloro-6-(1H-1,2,3-triazol-1-yl)pyridin-3-yl)methoxy)pyridin-2-yl)-2,5-difluorobenzyl)-1-(2-methoxy-2-methylpropyl)-1H-benzo[d]imidazole-6-carboxylic acid] | 10.39 | 
5 | N#Cc1ccc(COc2cccc(-c3cc(F)c(Cc4nc5ccc(C(=O)O)cc5n4C4CCOCC45CC5)cc3F)n2)c(F)c1 (stereo not drawn) [Example 82, 2-(4-(6-((4-cyano-2-fluorobenzyl)oxy)pyridin-2-yl)-2,5-difluorobenzyl)-1-(5-oxaspiro[2.5]octan-8-yl)-1H-benzo[d]imidazole-6-carboxylic Acid] | 8.80 | 
6 | CC(=O)N1[C@@H](Cn2c(Cc3cc(F)c(-c4cccc(OCc5ccc(C#N)cc5F)n4)cc3F)nc3ccc(C(=O)O)cc32)C[C@H]2C[C@H]21 [Example 150, 1-(((1R,3R,5R)-2-acetyl-2-azabicyclo[3.1.0]hexan-3-yl)methyl)-2-(4-(6-((4-cyano-2-fluorobenzyl)oxy)pyridin-2-yl)-2,5-difluorobenzyl)-1H-benzo[d]imidazole-6-carboxylic Acid] |  | 10.20
7 | Cc1cc(Cc2nc3ccc(C(=O)O)cc3n2[C@@H]2COCC2(C)C)c(F)cc1-c1cccc(OCc2ccc(C#N)cc2)n1 [Example 179, (S)-2-(4-(6-((4-cyanobenzyl)oxy)pyridin-2-yl)-2-fluoro-5-methylbenzyl)-1-(4,4-dimethyltetrahydrofuran-3-yl)-1H-benzo[d]imidazole-6-carboxylic Acid] | 10.19 | 
8 | CO[C@H](C)Cn1c(Cc2cc(F)c(-c3cccc(OCc4ccc(-n5ccnn5)nc4)n3)cc2F)nc2c(F)cc(C(=O)O)cc21 [Example 352, (R)-2-(4-(6-((6-(1H-1,2,3-triazol-1-yl)pyridin-3-yl)methoxy)pyridin-2-yl)-2,5-difluorobenzyl)-4-fluoro-1-(2-methoxypropyl)-1H-benzo[d]imidazole-6-carboxylic acid] | 9.27 | 
9 | CC1(C)COC[C@H]1n1c(Cc2cc(F)c(-c3ccc(F)c(OCc4cc(F)c(C#N)cc4F)n3)cc2F)nc2ccc(C(=O)O)cc21 [Example 491, (S)-2-(4-(6-((4-cyano-2,5-difluorobenzyl)oxy)-5-fluoropyridin-2-yl)-2,5-difluorobenzyl)-1-(4,4-dimethyltetrahydrofuran-3-yl)-1H-benzo[d]imidazole-6-carboxylic acid] | 10.10 | 
10 | CC(=O)N1Cc2ccc(COc3cccc(-c4cc(F)c(Cc5nc6ccc(C(=O)O)cc6n5C[C@@H]5CCO5)cc4F)n3)cc2C1 [Example 522, (S)-2-(4-(6-((2-acetylisoindolin-5-yl)methoxy)pyridin-2-yl)-2,5-difluorobenzyl)-1-(oxetan-2-ylmethyl)-1H-benzo[d]imidazole-6-carboxylic acid] | 9.78 | 
11 | CC1(C)COC[C@H]1n1c(Cc2cc(F)c(-c3cc(C(F)F)cc(OCc4ccc(Cl)cc4F)n3)cc2F)nc2ccc(C(=O)O)cc21 [Example 447, (S)-2-(4-(6-((4-chloro-2-fluorobenzyl)oxy)-4-(difluoromethyl)pyridin-2-yl)-2,5-difluorobenzyl)-1-(4,4-dimethyltetrahydrofuran-3-yl)-1H-benzo[d]imidazole-6-carboxylic acid] | 8.86 | 
12 | COCCn1c(Cc2cc(F)c(-c3cccc(OCc4ncc(C#N)cc4F)n3)cc2F)nc2ccc(C(=O)O)cc21 [Example 39] | 8.05 | 
13 | COCCn1c(Cc2cc(F)c(-c3cccc(OCc4ccc(-c5cn(C)nn5)nc4)n3)cc2F)nc2ccc(C(=O)O)cc21 [Example 107, 2-(2,5-difluoro-4-(6-((6-(1-methyl-1H-1,2,3-triazol-4-yl)pyridin-3-yl)methoxy)pyridin-2-yl)benzyl)-1-(2-methoxyethyl)-1H-benzo[d]imidazole-6-carboxylic Acid] | 8.85 | 
14 | Cc1cc(COc2cccc(-c3cc(F)c(Cc4nc5ccc(C(=O)O)cc5n4[C@@H]4COCC4(C)C)cc3F)n2)c(F)cc1Cl [Example 450, (S)-2-(4-(6-((4-chloro-2-fluoro-5-methylbenzyl)oxy)pyridin-2-yl)-2,5-difluorobenzyl)-1-(4,4-dimethyltetrahydrofuran-3-yl)-1H-benzo[d]imidazole-6-carboxylic acid] | 8.98 | 
15 | N#Cc1ccc(COc2cccc(-c3cc(F)c(Cc4nc5ccc(C(=O)O)cc5n4[C@@H]4CCOC4)cc3F)n2)c(F)c1 [Example 5, (R)-2-(4-(6-((4-cyano-2-fluorobenzyl)oxy)pyridin-2-yl)-2,5-difluorobenzyl)-1-(tetrahydrofuran-3-yl)-1H-benzo[d]imidazole-6-carboxylic acid] | 9.11 | 
16 | CC1(C)COCC1n1c(Cc2cc(F)c(-c3cccc(OCc4ccc(C(F)F)cc4F)n3)cc2F)nc2ccc(C(=O)O)cc21 (stereo not drawn) [Example 21, 2-(4-(6-((4-(difluoromethyl)-2-fluorobenzyl)oxy)pyridin-2-yl)-2,5-difluorobenzyl)-1-(4,4-dimethyltetrahydrofuran-3-yl)-1H-benzo[d]imidazole-6-carboxylic Acid] | 9.96 | 
17 | O=C(O)c1cc(F)c2nc(Cc3cc(F)c(-c4cccc(OCc5ccc(Cl)cc5F)n4)cc3F)n(C3COCC34CC4)c2c1 (stereo not drawn) [Example 220, 2-(4-(6-((4-chloro-2-fluorobenzyl)oxy)pyridin-2-yl)-2,5-difluorobenzyl)-4-fluoro-1-(5-oxaspiro[2.4]heptan-7-yl)-1H-benzo[d]imidazole-6-carboxylic acid] | 9.67 | 
18 | CC1(C)COCC1n1c(Cc2cc(F)c(-c3ccc(F)c(OCc4ccc(C(F)(F)F)cc4F)n3)cc2F)nc2c(F)cc(C(=O)O)cc21 (stereo not drawn) [Example 503, 2-(2,5-difluoro-4-(5-fluoro-6-((2-fluoro-4-(trifluoromethyl)benzyl)oxy)pyridin-2-yl)benzyl)-1-(4,4-dimethyltetrahydrofuran-3-yl)-4-fluoro-1H-benzo[d]imidazole-6-carboxylic acid] | 10.09 | 
19 | CC1(C)COC[C@H]1n1c(Cc2cc(F)c(-c3cccc(OCc4ccc(C#N)cc4F)n3)cc2F)nc2cnc(C(=O)O)cc21 [Example 422, (S)-2-(4-(6-((4-cyano-2-fluorobenzyl)oxy)pyridin-2-yl)-2,5-difluorobenzyl)-1-(4,4-dimethyltetrahydrofuran-3-yl)-1H-imidazo[4,5-c]pyridine-6-carboxylic acid] | 8.50 | 
20 | CO[C@H](C)Cn1c(Cc2cc(F)c(-c3cccc(OCc4ccc(-n5ccnn5)cc4F)n3)cc2F)nc2c(F)cc(C(=O)O)cc21 [Example 354, (R)-2-(2,5-difluoro-4-(6-((2-fluoro-4-(1H-1,2,3-triazol-1-yl)benzyl)oxy)pyridin-2-yl)benzyl)-4-fluoro-1-(2-methoxypropyl)-1H-benzo[d]imidazole-6-carboxylic acid] | 9.28 | 
21 | CC1(C)COC[C@H]1n1c(Cc2c(F)cc(-c3ccc(F)c(OCc4ccc(Cl)cc4F)n3)c(F)c2F)nc2c(F)cc(C(=O)O)cc21 [Example 336, (S)-2-(4-(6-((4-chloro-2-fluorobenzyl)oxy)-5-fluoropyridin-2-yl)-2,3,6-trifluorobenzyl)-1-(4,4-dimethyltetrahydrofuran-3-yl)-4-fluoro-1H-benzo[d]imidazole-6-carboxylic acid] | 10.80 | 
22 | COCCn1c(Cc2cc(F)c(-c3cccc(OCc4ccc(C(C)(F)F)cc4)n3)cc2F)nc2ccc(C(=O)O)cc21 [Example 96, 2-(4-(6-((4-(1,1-difluoroethyl)benzyl)oxy)pyridin-2-yl)-2,5-difluorobenzyl)-1-(2-methoxyethyl)-1H-benzo[d]imidazole-6-carboxylic Acid] | 9.01 | 
23 | N#Cc1ccc(COc2nc(-c3cc(F)c(Cc4nc5c(F)cc(C(=O)O)cc5n4C4COCC45CC5)cc3F)ccc2F)c(F)c1 (stereo not drawn) [Example 224, 2-(4-(6-((4-cyano-2-fluorobenzyl)oxy)-5-fluoropyridin-2-yl)-2,5-difluorobenzyl)-4-fluoro-1-(5-oxaspiro[2.4]heptan-7-yl)-1H-benzo[d]imidazole-6-carboxylic acid] | 9.29 | 
24 | CC1(C)COC[C@H]1n1c(Cc2cc(F)c(-c3cccc(OCc4ccc(C#N)c(F)c4F)n3)cc2F)nc2c(F)cc(C(=O)O)cc21 [Example 500, (S)-2-(4-(6-((4-cyano-2,3-difluorobenzyl)oxy)pyridin-2-yl)-2,5-difluorobenzyl)-1-(4,4-dimethyltetrahydrofuran-3-yl)-4-fluoro-1H-benzo[d]imidazole-6-carboxylic Acid] | 9.69 | 
